No end group written: not given here.
Tested on: neonatal rat ventricular cardiomyocyte
Test: Hypoxia-reoxygenation (simulated I-R) injury in neonatal rat cardiomyocytes, LDH and cTnI release
Format: cell-based
Conditions: 1 μM
Experimental: Isolation of primary neonatal rat ventricular cardiomyocyte: All materials used for cardiomyocyte isolation were of tissue culture grade. Cardiomyocyte isolation was performed by serial enzymatic digestions, as previously described (Irvine, J C et al, AJP, 2013). Cardiomyocyte were suspended in sterile DMEM, supplemented with 100 U/mL penicillin, 100 μg/mL streptomycin, and 10% FCS. The myocyte-rich cell suspension was preplated twice (45 min at 37° C.) to reduce fibroblast contamination. Cardiomycte was then plated onto 12-well plates at 0.5×10^6 for lactate dehydrogenase (LDH) assay in the presence of 1% 5-bromo-2′-deoxyuridine (BrdU, to limit proliferation of any remaining fibroblasts).
Simulated ischaemic-reperfusion in neonatal rat cardiomyocytes: The medium for cardiomyocytes was changed to serum-free low glucose DMEM after at least 48 h after isolation. […] Agonists were dissolved in DMEM or Krebs' buffer and were present for the full duration of hypoxia and reoxygenation. At the end of 48 h reoxygenation, culture supernatant aliquots was collected on ice and stored at −80° C. for assessment of cardiomyocyte injury. Samples were thawed on ice, and cell injury assessment determined via the level of LDH released into the supernatant, using the Cyto-Tox-One™ Homogeneous Membrane Integrity Assay as per manufacture's instruction (Promega Inc, Dane Country, Wis., USA). To confirm the extent of cardiomyocyte injury, levels of cTn in the supernatant were also evaluated, using a commercially available high-sensitivity rat cTnI ELISA kit (Life Diagnostic Inc, West Chester, Pa., USA) as per manufacturer's instructions.
Isolation and culture of primary rat cardiomyocytes and mouse cardiac fibroblasts: All materials used for cell isolation were of tissue culture grade. Isolation of primary neonatal rat cardiac cardiomyocytes (NRCM) and adult mouse cardiac fibroblasts (AMCF) was performed by serial enzymatic digestion, as previously described (Irvine et al 2012 & Irvine et al. 3) NRCM were plated onto either 12-well tissue culture plates (for simulated ischemia-reperfusion, via hypoxia-reoxygenation, H-R) or 60 mm tissue culture dishes (for gene expression) at a density of 1.3×10^5 cells/cm^2, in the presence of 1% 5-bromo-2′-deoxyuridine. AMCF (passage #3) were seeded onto 60 mm tissue culture dishes at 9.5×10^4 cells/cm^2 and allowed to grow to 80% confluence prior to study. Following 48 h in serum-free DMEM, NRCM in 12-well tissue plates were subjected to simulated ischemia, induced by replacement of culture media with sterile-filtered Kreb's buffer (118 mM NaCl, 4.8 mM KCl, 1.2 mM KH2PO4, 1.2 mM MgSO4, 25 mM NaHCO3, […], 11.0 mM glucose, 1.75 mM CaCl2) prior to incubation for 6 h at 37° C. under hypoxia (95% N2-5% CO2, using a hypoxia chamber, QNA International, Melbourne, Australia). At the end of hypoxia, Kreb's buffer was replaced with fresh, sterile-filtered Kreb's buffer, in the presence or absence of FPR agonists Cmpd17b, Cmpd43 (both 1 μM or vehicle, and NRCM were subjected to 48 h reoxygenation at 37° C. At the end of 48 h reoxygenation, NRCM supernatant was collected for assessment of cardiomyocyte injury. Cardiomyocyte release of cTnI was determined using a commercially available, high-sensitivity rat cTnI ELISA kit (Life Diagnostic Inc.) as per the manufacturer's instructions. Separate NRVM on 60 mm dishes were incubated for 48 h at 37° C. in serum-free DMEM, in the presence or absence of FPR agonists Cmpd17b, Cmpd43 (both 1 μM) or vehicle. At the end of 48 h, RNA was extracted and real-time PCR performed (as described previously (Huynh et al. 2012)), to determine the relative gene expression of rat Fprs (rFpr1, rFpr2 and rFpr3, expressed as the threshold cycle number Ct subtracted from the maximum cycle number utilized, 40).
Cardiomyocytes injury responses in vitro: Neonatal rat cardiomyocytes and adult mouse cardiofibroblasts were isolated and cultured as described (online Supplement). […]

[1] = present only during reoxygenation
[2] = present for the full duration of 6 h hypoxia and 48 h reoxygenation

| Compound | Cardiomyocyte cTnI release after hypoxia-reoxygenation [1] | Cardiomyocyte cTnI release after hypoxia-reoxygenation (present only during reoxygenation, listed as Cmpd17b) | Cardiomyocyte LDH release after hypoxia-reoxygenation [2] | Cardiomyocyte cTnI release after hypoxia-reoxygenation [2] | Cardiomyocyte LDH release after hypoxia-reoxygenation [1] |
| --- | --- | --- | --- | --- | --- |
| COc1cccc(Cc2cc(C)nn(C(C)C(=O)Nc3ccc(Br)cc3)c2=O)c1 (stereo not shown) [BIDI-001, N-(4-bromophenyl)-2-[5-(3-methoxybenzyl)-3-methyl-6-oxo-6H-pyridazin-1-yl]-propionamide] | significantly reduced | rescued |  |  |  |
| CC(C)C1C(NC(=O)Nc2ccc(Cl)cc2)C(=O)N(c2ccccc2)N1C (stereo not shown) [BIDI-002] | significantly reduced |  |  |  |  |
| Ac2-26: Annexin-A1 N-terminal peptide, peptide ANX-A1 mimetic (Ac-AMVSEFLKQAWFIENEEQEYVQTVK; UniProt P04083 2-26, looked up, fragment) | significantly attenuated |  | significantly reduced | significantly reduced | non-significant trend |

From patent US10328075B2, “Method of treatment and compounds for use therein” (Baker Heart and Diabetes Institute, priority 2015, dated 2019)
